From BindingDB's records for doi:10.1016/j.ejmech.2023.115347 (Johann Wolfgang Goethe University, 2023)

Biological target: Ribosomal protein S6 kinase alpha-1 (Homo sapiens) (UniProt Q15418)
Assay: Inhibition of full length NanoLuc fused RSK1b (unknown origin) transfected in HEK293T cells using NanoBRET NanoGlo substrate incubated for 2 hrs in presence of tracer by NanoBRET assay

Chain of Ribosomal protein S6 kinase alpha-1 (Homo sapiens) (Q15418 whole entry, looked up, the tested form may be a part): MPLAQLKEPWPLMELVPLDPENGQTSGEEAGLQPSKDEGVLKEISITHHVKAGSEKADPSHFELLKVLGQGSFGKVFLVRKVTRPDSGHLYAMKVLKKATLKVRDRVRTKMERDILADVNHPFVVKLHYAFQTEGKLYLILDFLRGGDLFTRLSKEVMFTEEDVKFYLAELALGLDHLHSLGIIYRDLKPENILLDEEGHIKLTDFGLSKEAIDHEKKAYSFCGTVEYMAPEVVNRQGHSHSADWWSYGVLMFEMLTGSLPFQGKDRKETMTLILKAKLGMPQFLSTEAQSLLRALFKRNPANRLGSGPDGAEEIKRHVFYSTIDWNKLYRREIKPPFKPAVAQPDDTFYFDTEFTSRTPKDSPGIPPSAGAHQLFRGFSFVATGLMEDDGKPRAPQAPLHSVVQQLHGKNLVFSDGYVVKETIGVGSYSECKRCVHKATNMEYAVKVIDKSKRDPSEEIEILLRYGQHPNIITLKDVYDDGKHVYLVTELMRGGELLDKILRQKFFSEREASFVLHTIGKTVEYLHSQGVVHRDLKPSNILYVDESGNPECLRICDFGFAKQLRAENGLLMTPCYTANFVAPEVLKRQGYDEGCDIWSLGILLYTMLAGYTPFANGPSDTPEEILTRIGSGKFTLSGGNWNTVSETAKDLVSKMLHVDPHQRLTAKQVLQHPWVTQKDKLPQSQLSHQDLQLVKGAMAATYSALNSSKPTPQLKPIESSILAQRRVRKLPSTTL

IC50: > 45 µM
Compound: CNc1ncc2cc(-c3cc(F)ccc3F)c(=O)n(CCCCN)c2n1
